Literature values in article PMC3971013 (Journal of natural products, 2013).
Non-standard residues stand in square brackets, D forms with d. Residues, ends and D or L forms follow the SMILES beside them. *: point of attachment. Octanoyl(2R-Me,7,8-dehydro) = C=CCCCC[C@@H](C)C(=O)*; Oct7ynoyl(2R-Me) = C#CCCCC[C@@H](C)C(=O)*; NMeF = CN[C@@H](Cc1ccccc1)C(=O)O; X4 = CC(=O)CCCC[C@@H](C)C(=O)*; Oct(7)enoyl = C=CCCCCCC(=O)*; Oct(7)ynoyl = C#CCCCCCC(=O)*; NMeV = CN[C@H](C(=O)O)C(C)C; Hept6ynoyl = C#CCCCCC(=O)*; NMeA = CN[C@@H](C)C(=O)O; X3 = C=CCCCCC(=O)*

System: Vero Cells
Settings: not given

Structure (SMILES) | LD50 Vero Cells [µM]
C=CCCCCCC(=O)N(C)[C@H](C(=O)N(C)[C@H](C(=O)N(C)[C@H](C(=O)N(C)[C@@H](C)C(=O)N(C)[C@@H](Cc1ccccc1)C(=O)OC)C(C)C)C(C)C)C(C)C [Compound 21] ({Oct(7)enoyl}-[NMeV][NMeV][NMeV][NMeA][NMeF]-OMe) | 18.8
C#CCCCCC(=O)N(C)[C@H](C(=O)N(C)[C@H](C(=O)N(C)[C@H](C(=O)N(C)[C@@H](C)C(=O)N(C)[C@@H](Cc1ccccc1)C(=O)N(C)C)C(C)C)C(C)C)C(C)C [Compound 10] (Hept6ynoyl-[NMeV][NMeV][NMeV][NMeA][NMeF]-NMe2) | 155.7
C=CCCCCCC(=O)N(C)[C@H](C(=O)N(C)[C@H](C(=O)N(C)[C@H](C(=O)N(C)[C@@H](C)C(=O)N(C)[C@@H](Cc1ccccc1)C(=O)O)C(C)C)C(C)C)C(C)C [Compound 17] ({Oct(7)enoyl}-[NMeV][NMeV][NMeV][NMeA][NMeF]-OH) | 192.4
C=CCCCCC(=O)N(C)[C@H](C(=O)N(C)[C@H](C(=O)N(C)[C@H](C(=O)N(C)[C@@H](C)C(=O)N(C)[C@@H](Cc1ccccc1)C(=O)OC)C(C)C)C(C)C)C(C)C [Compound 19] (X3-[NMeV][NMeV][NMeV][NMeA][NMeF]-OMe) | 24.7
C=CCCCCC(=O)N(C)[C@H](C(=O)N(C)[C@H](C(=O)N(C)[C@H](C(=O)N(C)[C@@H](C)C(=O)N(C)[C@@H](Cc1ccccc1)C(=O)N(C)C)C(C)C)C(C)C)C(C)C [Compound 11] (X3-[NMeV][NMeV][NMeV][NMeA][NMeF]-NMe2) | 93.1
C=CCCCCC(=O)N(C)[C@H](C(=O)N(C)[C@H](C(=O)N(C)[C@H](C(=O)N(C)[C@@H](C)C(=O)N(C)[C@@H](Cc1ccccc1)C(=O)O)C(C)C)C(C)C)C(C)C [Compound 15] (X3-[NMeV][NMeV][NMeV][NMeA][NMeF]-OH) | >70.0
C=CCCCC[C@@H](C)C(=O)N(C)[C@H](C(=O)N(C)[C@H](C(=O)N[C@H](C(=O)N(C)[C@@H](C)C(=O)N(C)[C@@H](Cc1ccccc1)C(N)=O)C(C)C)C(C)C)C(C)C [Almiramide C (9), Almiramide C] ({Octanoyl(2R-Me,7,8-dehydro)}-[NMeV][NMeV]V[NMeA][NMeF]-NH2) | 33.1
C=CCCCCCC(=O)N(C)[C@H](C(=O)N(C)[C@H](C(=O)N(C)[C@H](C(=O)N(C)[C@@H](C)C(=O)N(C)[C@@H](Cc1ccccc1)C(=O)N(C)C)C(C)C)C(C)C)C(C)C [Compound 13] ({Oct(7)enoyl}-[NMeV][NMeV][NMeV][NMeA][NMeF]-NMe2) | 23.8

Same assay, conditions: previously reported LD50 values

Structure (SMILES) | LD50 Vero Cells [µM]
C#CCCCCCC(=O)N(C)[C@H](C(=O)N(C)[C@H](C(=O)N(C)[C@H](C(=O)N(C)[C@@H](C)C(=O)N(C)[C@@H](Cc1ccccc1)C(=O)O)C(C)C)C(C)C)C(C)C [Compound 16] ({Oct(7)ynoyl}-[NMeV][NMeV][NMeV][NMeA][NMeF]-OH) | >68.9
C#CCCCCC(=O)N(C)[C@H](C(=O)N(C)[C@H](C(=O)N(C)[C@H](C(=O)N(C)[C@@H](C)C(=O)N(C)[C@@H](Cc1ccccc1)C(=O)OC)C(C)C)C(C)C)C(C)C [Compound 18] (Hept6ynoyl-[NMeV][NMeV][NMeV][NMeA][NMeF]-OMe) | 41.4
C#CCCCCC(=O)N(C)[C@H](C(=O)N(C)[C@H](C(=O)N(C)[C@H](C(=O)N(C)[C@@H](C)C(=O)N(C)[C@@H](Cc1ccccc1)C(=O)O)C(C)C)C(C)C)C(C)C [Compound 14] (Hept6ynoyl-[NMeV][NMeV][NMeV][NMeA][NMeF]-OH) | 281.1
C#CCCCC[C@@H](C)C(=O)N(C)[C@H](C(=O)N(C)[C@H](C(=O)N[C@H](C(=O)N(C)[C@@H](C)C(=O)N(C)[C@@H](Cc1ccccc1)C(N)=O)C(C)C)C(C)C)C(C)C [Almiramide B (8), Almiramide B] ({Oct7ynoyl(2R-Me)}-[NMeV][NMeV]V[NMeA][NMeF]-NH2) | 52.3
CC(=O)CCCC[C@@H](C)C(=O)N(C)[C@H](C(=O)N(C)[C@H](C(=O)N[C@H](C(=O)N(C)[C@@H](C)C(=O)N(C)[C@@H](Cc1ccccc1)C(N)=O)C(C)C)C(C)C)C(C)C [Almiramide A (7), Almiramide A] (X4-[NMeV][NMeV]V[NMeA][NMeF]-NH2) | 113.1
C#CCCCCCC(=O)N(C)[C@H](C(=O)N(C)[C@H](C(=O)N(C)[C@H](C(=O)N(C)[C@@H](C)C(=O)N(C)[C@@H](Cc1ccccc1)C(=O)N(C)C)C(C)C)C(C)C)C(C)C [Compound 12] ({Oct(7)ynoyl}-[NMeV][NMeV][NMeV][NMeA][NMeF]-NMe2) | 159.4
C#CCCCCCC(=O)N(C)[C@H](C(=O)N(C)[C@H](C(=O)N(C)[C@H](C(=O)N(C)[C@@H](C)C(=O)N(C)[C@@H](Cc1ccccc1)C(=O)OC)C(C)C)C(C)C)C(C)C [Compound 20] ({Oct(7)ynoyl}-[NMeV][NMeV][NMeV][NMeA][NMeF]-OMe) | 27.0
